Source: US9663496B2, “AMPK-activating heterocyclic compounds and methods for using the same” (Rigel Pharmaceuticals, Inc., priority 2010, dated 2017)
pEC50: −log10 of the molar value.

target: AMPK; assay: AMPK activation, enzyme-linked immunosorbent assay; type: biochemical; settings: EC50 for AMPK activation, ELISA
Summary of the method: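 Activation by each compound is measured using a conventional commercial immunoassay kit.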

pEC50	Structure (SMILES)
> 6.30	CC(=O)c1ccc(OC2CCN(C(=O)c3ccc(C(=O)NC4CCN(Cc5ccc(F)cc5)CC4)cn3)CC2)cc1 [Compound 391, 6-(4-(4-acetylphenoxy)piperidine-1-carbonyl)-N-(1-(4-fluorobenzyl)piperidin-4-yl)nicotinamide]
> 6.30	O=C(NC1CCN(Cc2ccc(F)cc2)CC1)c1ccc(C(=O)N2CCC(C(=O)c3ccc(-n4cccn4)cc3)CC2)nc1 [Compound 392, 6-(4-(4-(1H-pyrazol-1-yl)benzoyl)piperidine-1-carbonyl)-N-(1-(4-fluorobenzyl)piperidin-4-yl)nicotinamide]
> 6.30	N#Cc1ccc(CN2CCC(NC(=O)c3ccc(C(=O)N4CCC(C(=O)c5ccc(-n6cccn6)cc5)CC4)nc3)CC2)cc1 [Compound 393, 6-(4-(4-(1H-pyrazol-1-yl)benzoyl)piperidine-1-carbonyl)-N-(1-(4-cyanobenzyl)piperidin-4-yl)nicotinamide]
< 5.00	COc1ccc(OC2CCN(C(=O)c3ccc(C(=O)NC4CCN(Cc5ccc(C#N)cc5)CC4)cn3)CC2)c(NC(=O)CCOCCOCCOCCOCCNC(=O)CCCC[C@@H]2SC[C@@H]3NC(=O)N[C@@H]32)c1 [Compound 394, N-(1-(4-cyanobenzyl)piperidin-4-yl)-6-(4-(4-methoxy-2-(17-oxo-21-((3aS,4S,6aR)-2-oxohexahydro-1H-thieno[3,4-d]imidazol-4-yl)-4,7,10,13-tetraoxa-16-azahenicosanamido)phenoxy)piperidine-1-carbonyl)nicotinamide]
> 6.30	CC(=O)c1ccc(OC2CCN(C(=O)c3ccc(C(=O)Nc4ccc(Oc5ccc(F)cc5)nc4)cn3)CC2)cc1 [Compound 395, 6-(4-(4-acetylphenoxy)piperidine-1-carbonyl)-N-(6-(4-fluorophenoxy)pyridin-3-yl)nicotinamide]
5.30 to 6.00	CS(=O)(=O)c1ccc(OC2CCN(C(=O)c3ccc(C(=O)NC4CCN(Cc5ccc(F)cc5)CC4)cn3)CC2)cc1 [Compound 396, N-(1-(4-fluorobenzyl)piperidin-4-yl)-6-(4-(4-(methylsulfonyl)phenoxy)piperidine-1-carbonyl)nicotinamide]
> 6.30	CS(=O)(=O)c1ccc(OC2CCN(C(=O)c3ccc(C(=O)NC4CCN(Cc5ccc(C#N)cc5)CC4)cn3)CC2)cc1 [Compound 397, N-(1-(4-cyanobenzyl)piperidin-4-yl)-6-(4-(4-(methylsulfonyl)phenoxy)piperidine-1-carbonyl)nicotinamide]
> 6.30	CS(=O)(=O)c1ccc(OC2CCN(C(=O)c3ccc(C(=O)NC4CCC(Oc5ccc(C#N)cc5)CC4)cn3)CC2)cc1 (stereo not shown) [Compound 398, N-(4-(4-cyanophenoxy)cyclohexyl)-6-(4-(4-(methylsulfonyl)phenoxy)piperidine-1-carbonyl)nicotinamide]
> 6.30	CS(=O)(=O)c1ccc(OC2CCN(C(=O)c3ccc(C(=O)NC4CCN(Cc5ccc(C#N)cc5)CC4)nn3)CC2)cc1 [Compound 399, N-(1-(4-cyanobenzyl)piperidin-4-yl)-6-(4-(4-(methylsulfonyl)phenoxy)piperidine-1-carbonyl)pyridazine-3-carboxamide]
5.30 to 6.00	COc1ccc(C(=O)C2CCN(C(=O)c3ccc(C(=O)NC4CCN(Cc5ccc(N)cc5)CC4)cn3)CC2)cc1 [Compound 400, N-(1-(4-aminobenzyl)piperidin-4-yl)-6-(4-(4-methoxybenzoyl)piperidine-1-carbonyl)nicotinamide]
5.30 to 6.00	COc1ccc(C(=O)C2CCN(C(=O)c3ccc(C(=O)NC4CCN(Cc5ccc(NC(C)=O)cc5)CC4)cn3)CC2)cc1 [Compound 401, N-(1-(4-acetamidobenzyl)piperidin-4-yl)-6-(4-(4-methoxybenzoyl)piperidine-1-carbonyl)nicotinamide]
< 5.00	COc1ccc(C(=O)C2CCN(C(=O)c3ccc(C(=O)NC4CCN(Cc5ccc(NC(=O)CCOCCOCCOCCNC(=O)CCCC[C@@H]6SC[C@@H]7NC(=O)N[C@@H]76)cc5)CC4)nc3)CC2)cc1 [Compound 403, 5-(4-(4-methoxybenzoyl)piperidine-1-carbonyl)-N-(1-(4-(14-oxo-18-((3aS,4S,6aR)-2-oxohexahydro-1H-thieno[3,4-d]imidazol-4-yl)-4,7,10-trioxa-13-azaoctadecanamido)benzyl)piperidin-4-yl)picolinamide]
5.30 to 6.00	O=C(NC1CCN(c2ccc(F)cc2)CC1)c1ccc(C(=O)N2CCN(Cc3ccc(F)cc3)CC2)nc1 [Compound 404, 6-(4-(4-fluorobenzyl)piperazine-1-carbonyl)-N-(1-(4-fluorophenyl)piperidin-4-yl)nicotinamide]
> 6.30	COc1ccc(N2CCC(NC(=O)c3ccc(C(=O)N4CCN(Cc5ccc(F)cc5)CC4)nc3)CC2)cc1 [Compound 405, 6-(4-(4-fluorobenzyl)piperazine-1-carbonyl)-N-(1-(4-methoxyphenyl)piperidin-4-yl)nicotinamide]
6.00 to 6.30	CC(=O)Nc1ccc(OC2CCN(C(=O)c3ccc(C(=O)NC4CCN(Cc5ccc(F)cc5)CC4)cn3)CC2)cc1 [Compound 406, 6-(4-(4-acetamidophenoxy)piperidine-1-carbonyl)-N-(1-(4-fluorobenzyl)piperidin-4-yl)nicotinamide]
> 6.30	COc1ccc(CN2CCC(NC(=O)c3ccc(C(=O)N4CCC(Oc5ccc(NC(C)=O)cc5)CC4)nc3)CC2)cc1 [Compound 407, 6-(4-(4-acetamidophenoxy)piperidine-1-carbonyl)-N-(1-(4-methoxybenzyl)piperidin-4-yl)nicotinamide]

pEC50	Structure (SMILES)
> 6.30	CC(=O)Nc1ccc(OC2CCN(C(=O)c3ccc(C(=O)Nc4ccc(Oc5ccc(F)cc5)nc4)nc3)CC2)cc1 [Compound 408, 5-(4-(4-acetamidophenoxy)piperidine-1-carbonyl)-N-(6-(4-fluorophenoxy)pyridin-3-yl)picolinamide]
> 6.30	N#Cc1ccc(CN2CCC(NC(=O)c3ccc(C(=O)N4CCC(Oc5ccc(NC(=O)C6CC6)cc5)CC4)nc3)CC2)cc1 [Compound 409, N-(1-(4-cyanobenzyl)piperidin-4-yl)-6-(4-(4-(cyclopropane-carboxamido)phenoxy)piperidine-1-carbonyl)nicotinamide]
> 6.30	N#Cc1ccc(CN2CCC(NC(=O)c3ccc(C(=O)N4CCC(Oc5ccc(SC(F)(F)F)cc5)CC4)cn3)CC2)cc1 [Compound 410, N-(1-(4-cyanobenzyl)piperidin-4-yl)-5-(4-(4-(trifluoromethylthio)phenoxy)piperidine-1-carbonyl)picolinamide]
5.30 to 6.00	CC(=O)Nc1cccc(OC2CCN(C(=O)c3ccc(C(=O)NC4CCN(Cc5ccc(C#N)cc5)CC4)cn3)CC2)c1 [Compound 411, 6-(4-(3-acetamidophenoxy)piperidine-1-carbonyl)-N-(1-(4-cyanobenzyl)piperidin-4-yl)nicotinamide]
5.30 to 6.00	COc1ccc(CN2CCC(NC(=O)c3ccc(C(=O)N4CCC(Oc5cccc(NC(C)=O)c5)CC4)nc3)CC2)cc1 [Compound 412, 6-(4-(3-acetamidophenoxy)piperidine-1-carbonyl)-N-(1-(4-methoxybenzyl)piperidin-4-yl)nicotinamide]
5.30 to 6.00	CC(=O)Nc1cccc(OC2CCN(C(=O)c3ccc(C(=O)NC4CCN(Cc5ccc(F)cc5)CC4)cn3)CC2)c1 [Compound 413, 6-(4-(3-acetamidophenoxy)piperidine-1-carbonyl)-N-(1-(4-fluorobenzyl)piperidin-4-yl)nicotinamide]
5.30 to 6.00	CC(=O)Nc1cccc(OC2CCN(C(=O)c3ccc(C(=O)Nc4ccc(Oc5ccc(F)cc5)nc4)cn3)CC2)c1 [Compound 414, 6-(4-(3-acetamidophenoxy)piperidine-1-carbonyl)-N-(6-(4-fluorophenoxy)pyridin-3-yl)nicotinamide]
> 6.30	N#Cc1ccc(CN2CCC(NC(=O)c3ccc(C(=O)N4CCC(Oc5ccc(S(=O)(=O)C(F)(F)F)cc5)CC4)cn3)CC2)cc1 [Compound 415, N-(1-(4-cyanobenzyl)piperidin-4-yl)-5-(4-(4-(trifluoromethylsulfonyl)phenoxy)piperidine-1-carbonyl)picolinamide]
5.30 to 6.00	COc1ccc(C(=O)C2CCN(C(=O)c3ncc(C(=O)NC4CCN(Cc5ccc(C#N)cc5)CC4)cc3CCCNC(=O)OC(C)(C)C)CC2)cc1 [Compound 416, tert-butyl 3-(5-(1-(4-cyanobenzyl)piperidin-4-ylcarbamoyl)-2-(4-(4-methoxybenzoyl)piperidine-1-carbonyl)pyridin-3-yl)propylcarbamate]
> 6.30	N#Cc1ccc(N2CCC(NC(=O)c3ccc(C(=O)N4CCN(Cc5ccc(F)cc5)CC4)nc3)CC2)cc1 [Compound 417, N-(1-(4-cyanophenyl)piperidin-4-yl)-6-(4-(4-fluorobenzyl)piperazine-1-carbonyl)nicotinamide]
> 6.30	N#Cc1ccc(OC2CCN(C(=O)c3ccc(C(=O)NC4CCN(c5ccc(C#N)cc5)CC4)cn3)CC2)cc1 [Compound 418, 6-(4-(4-cyanophenoxy)piperidine-1-carbonyl)-N-(1-(4-cyanophenyl)piperidin-4-yl)nicotinamide]
> 6.30	N#Cc1ccc(CN2CCC(NC(=O)c3ccc(C(=O)N4CCC(C(=O)c5cccs5)CC4)cn3)CC2)cc1 [Compound 419, N-(1-(4-cyanobenzyl)piperidin-4-yl)-5-(4-(thiophene-2-carbonyl)piperidine-1-carbonyl)picolinamide]
5.30 to 6.00	CS(=O)(=O)c1ccc(N2CCC(NC(=O)c3ccc(C(=O)N4CCC(Oc5ccc(C#N)cc5)CC4)nc3)CC2)cc1 [Compound 420, 6-(4-(4-cyanophenoxy)piperidine-1-carbonyl)-N-(1-(4-(methylsulfonyl)phenyl)piperidin-4-yl)nicotinamide]
5.30 to 6.00	N#Cc1ccc(OC2CCN(C(=O)c3ccc(C(=O)NC4CCN(c5ccc(F)cc5)CC4)cn3)CC2)cc1 [Compound 422, 6-(4-(4-cyanophenoxy)piperidine-1-carbonyl)-N-(1-(4-fluorophenyl)piperidin-4-yl)nicotinamide]
> 6.30	COc1ccc(N2CCC(NC(=O)c3ccc(C(=O)N4CCC(Oc5ccc(C#N)cc5)CC4)nc3)CC2)cc1 [Compound 423, 6-(4-(4-cyanophenoxy)piperidine-1-carbonyl)-N-(1-(4-methoxyphenyl)piperidin-4-yl)nicotinamide]
